# Measured values published in paper PMC5843546 (Nature, 2018).
# Experiments:
# DRD2 wild-type = DRD2 wild-type (Homo sapiens, UniProt P14416); assay: biochemical
# [1] = target: T1, DRD2-T4L(Sf9) I122^3.40A/L375^6.37A/L379^6.41A (Homo sapiens, UniProt P14416, I122A/L375A/L379A); assay: biochemical
# T1 sequence (P14416 with tags, fused parts or gaps I122A/L375A/L379A): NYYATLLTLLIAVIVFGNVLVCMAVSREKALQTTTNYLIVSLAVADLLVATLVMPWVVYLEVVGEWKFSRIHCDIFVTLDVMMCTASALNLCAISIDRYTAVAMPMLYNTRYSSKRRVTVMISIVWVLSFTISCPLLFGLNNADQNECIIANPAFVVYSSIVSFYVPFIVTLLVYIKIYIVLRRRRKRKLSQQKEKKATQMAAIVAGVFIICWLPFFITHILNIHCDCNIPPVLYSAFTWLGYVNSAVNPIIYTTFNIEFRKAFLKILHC
# DRD2 F110^3.28A = DRD2 F110^3.28A (Homo sapiens, UniProt P14416, F110A); conditions: DRD2 F110^3.28A vs wild-type
# DRD2 W100^EL1A = DRD2 W100^EL1A (Homo sapiens, UniProt P14416, W100A); conditions: DRD2 W100^EL1A vs wild-type
ΔpKd (mutant-WT) (DRD2 F110^3.28A),ΔpKd (mutant-WT) (DRD2 W100^EL1A),Compound,Ki (DRD2 wild-type; Ki) [nM],Ki (DRD2 wild-type; pKi) [nM],Ki ([1]; Ki) [nM],Ki ([1]; pKi) [nM]
–,–,O=c1[nH]c2cccc(N3CCN(Cc4cccc(-c5ccccc5)c4)CC3)c2o1 [Bifeprunox],1.04,0.302,0.57,0.562
0.08,−0.98,"CNc1cc(OC)c(C(=O)NC2CCN(Cc3ccccc3)C2C)cc1Cl (stereo not drawn) [Nemonapride, nemonapride]",–,–,–,–
